Read-outs that look alike come from different tables or passages of the source.
Experiments:
ERα/β = conditions: read-out: Transactivation EC50, T47D-kBluc; ERE-luciferase; cells express ERα and ERβ; mean ± SEM (n)
Experimental: (§1) Cells were incubated overnight with the various compounds and luciferase activity was then determined in cell lysates. Transactivation activity of the human mineralocorticoid receptor (MR) and peroxisome proliferator-activated receptors (PPAR-γ and PPAR-δ) used the fluorimetric Gene Blazer β-lactamase assay system (InVitrogen) following the manufacturer's instructions. Assays were conducted on 384-well plates using a fluorogenic substrate (CCF4-AM, InVitrogen).

[1] = target: T1, human mineralocorticoid receptor (MR) (Homo sapiens, UniProt P08235); assay: Gene Blazer β-lactamase transactivation assay, MR; assay type: cell-based; conditions: data not shown
T1 sequence (P08235 726-984 limits assumed): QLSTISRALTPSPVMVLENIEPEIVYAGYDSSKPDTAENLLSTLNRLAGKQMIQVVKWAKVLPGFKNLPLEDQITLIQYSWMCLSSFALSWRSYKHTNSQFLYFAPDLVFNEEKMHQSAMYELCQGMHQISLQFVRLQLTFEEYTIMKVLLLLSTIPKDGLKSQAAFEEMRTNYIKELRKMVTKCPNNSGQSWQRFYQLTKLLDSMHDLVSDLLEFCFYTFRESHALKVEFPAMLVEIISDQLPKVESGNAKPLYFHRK
Experimental: as §1

PPAR-δ = target: T2, PPAR-δ (Homo sapiens, UniProt Q03181); assay: Gene Blazer β-lactamase transactivation assay, PPAR-δ; assay type: cell-based
T2 sequence (Q03181 211-441 limits assumed): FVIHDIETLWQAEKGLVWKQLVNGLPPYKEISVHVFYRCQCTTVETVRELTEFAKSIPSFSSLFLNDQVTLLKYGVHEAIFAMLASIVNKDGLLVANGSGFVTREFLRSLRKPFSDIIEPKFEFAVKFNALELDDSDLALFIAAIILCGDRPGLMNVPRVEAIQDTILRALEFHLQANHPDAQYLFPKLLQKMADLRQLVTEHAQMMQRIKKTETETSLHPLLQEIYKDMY
Experimental: as §1

PPAR-γ = PPAR-γ (Homo sapiens, UniProt P37231); conditions: data not shown
Experimental: as §1

[2] = tested on: glucocorticoid receptor (GR); conditions: data not shown
Experimental: as §1

[3] = tested on: LPS-induced shock in CD1 mice; conditions: for Serum levels of TNFα: male CD-1 mice, LPS 0.5 mg
Experimental: Six-week-old CD1 mice (Charles River, Calco, Italy) were kept under standard laboratory (nonspecific pathogen free) conditions at the University of Catania, School of Medicine, and were housed in a controlled environment and provided with standard rodent chow and water. Animal care and use was in compliance with all applicable regulations on protection of animals used for experimental and other scientific purposes.
To induce lethal endotoxemia, the mice were injected i.p. with 1 mg LPS (Sigma Chimica, Milan, Italy, code L6011, Lot K4096). […] In some studies (performed by Harbor Biosciences) male mice (n = 4 per group) were used and serum was taken 2 hours after LPS (0.5 mg) challenge, to measure levels of TNFα by ELISA.
All P-values of less than .05 were considered significant. For statistical analysis each group is compared to that of vehicle-treated control.

[4] = tested on: PLP(139–151)-induced EAE in female SJL/J mice
Excerpt: Mice Female SJL/J mice (6 to 8 weeks of age; Charles River Italia, Udine, Italy) were maintained in a pathogen-free vivarium at the University of Catania, School of Medicine (Catania, Italy) receiving ad libitum sterilized food and water, and were adapted to the ambient environment for at least 7 days before the start of the study. Animal care and use was in compliance with all applicable regulations for the protection of animals used for experimental and other scientific purposes.
Disease symptoms were monitored daily and scored in a blinded manner using the following scale: 0: no illness, 1: flaccid tail, 2: moderate paraparesis, 3: severe paraparesis, 4: moribund state, 5: death. Mice were randomized to each experimental group before immunization to induce EAE. […] Statistical analysis of cumulative clinical scores was performed by ANOVA analysis for unpaired data. A P-value <.05 was considered to be statistically significant. For statistical analysis, the mice that succumbed to EAE were assigned 5 only for the day of death and then were deleted from the experimental group.

[5] = tested on: CAR-induced pleurisy in CD1 male mice; conditions: 40 mg/kg suspension s.c. 24 h and 1 h before CAR, vs vehicle
[6] = tested on: PLP(139–151)-induced EAE in female SJL/J mice; conditions: 40 mg/kg soluble formulation (cyclodextran) s.c. daily from onset
Experimental: Mice Pathogen free female SJL/J mice (6–8 weeks old) were used for these studies.
The mice were assessed daily for clinical signs of EAE according to the following scale: 0: no signs; 1: limp tail or mild hind limb weakness; 2: moderate hind limb weakness or mild ataxia; 3: moderately severe hind limb weakness; 4: severe hind limb weakness or mild forearm weakness or moderate ataxia; 5: paraplegia with no more than moderate forelimb weakness; 6: paraplegia with severe forelimb weakness or severe ataxia or moribund condition.

in vivo = conditions: mouse
[7] = humans, injection of 100–200 mg suspension formulation, for several weeks; ref Stickney et al., in preparation; cited from earlier work
[8] = soluble formulation (cyclodextran), Harbor Biosciences, unpublished observations

Sequence of PPAR-γ (P37231 238-505 limits assumed): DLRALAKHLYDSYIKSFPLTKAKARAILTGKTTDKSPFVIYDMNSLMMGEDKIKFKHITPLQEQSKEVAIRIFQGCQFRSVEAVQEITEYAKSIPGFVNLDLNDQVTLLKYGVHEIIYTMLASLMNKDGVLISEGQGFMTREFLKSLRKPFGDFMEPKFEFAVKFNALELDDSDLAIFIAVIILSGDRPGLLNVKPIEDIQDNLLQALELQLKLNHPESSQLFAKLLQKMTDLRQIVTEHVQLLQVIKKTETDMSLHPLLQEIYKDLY

**Q.** What does the source list for `C[C@]12CC[C@H]3[C@@H](CC=C4C[C@@H](O)CC[C@@]43C)[C@@H]1CC[C@@H]2O` [5-AED, androst-5-ene-3β,17β-diol]?
**A.** Transactivation of human mineralocorticoid receptor [1]: does not transactivate; Transactivation of PPAR-δ (PPAR-δ; data not shown): does not transactivate; Transactivation of PPAR-γ (PPAR-γ): does not transactivate; Transactivation of human glucocorticoid receptor [2]: does not transactivate; Serum levels of TNFα ([3]; 0.4 mg/kg s.c.): not effective; Serum levels of TNFα ([3]; 4.0 mg/kg s.c.): not effective; Lethality ([3]; 40 mg/kg s.c. given 4 hours after LPS, data not shown): 100%; Lethality ([3]; 40 mg/kg s.c. given 8 hours after LPS, data not shown): 100%; Lethality ([3]; 40 mg/kg s.c. given 24 hours after LPS, data not shown): 100%; Lethality ([3]; 40 mg/kg s.c. given 24 hours before LPS (1 mg i.p.), 72 h, vehicle 100%): 50%; Serum levels of TNFα ([3]; 40 mg/kg suspension s.c., vs vehicle, P < .05): significantly (P < .05) reduced; Mortality ([4]; 0.4 mg/kg suspension s.c., after day 17): 6/10; Cumulative disease score ([4]; 0.4 mg/kg suspension s.c., surviving mice only): 14.5 ± 3.7; Lethality ([4]; 4 mg/kg suspension s.c.): No lethality; Cumulative disease score ([4]; 4 mg/kg suspension s.c. from Day 8 to Day 30, trend, vehicle 25.4 ± 9.3): 18.1 ± 9.9; Lethality ([4]; 40 mg/kg suspension s.c.): No lethality; Cumulative disease score ([4]; 40 mg/kg suspension s.c. from Day 8 to Day 30, vehicle 25.4 ± 9.3): 14.4 ± 9.1; Incidence of EAE ([4]; all groups (0.4, 4.0, 40 mg/kg)): 100%; Minimally effective dose ([4]; suspension s.c.): 4 to 40 mg/kg; IL-6 level in pleural rinse ([5]; at 4 and 5 hours): significantly reduced; TNFα level in pleural rinse ([5]; at 4 hours): significantly reduced; EAE clinical score vs vehicle [6]: no significant differences; Time to Cmax (40 mg/kg as suspension, mice): within one hour; Time to Cmax [8]: within minutes; Time to complete clearance [8]: 8 to 12 h; Cmax (in vivo): < 5 µg/mL; Cmax (in vivo; 40 mg/kg): ~0.1 µg/mL; concentration at 96 h (in vivo; 40 mg/kg): ~0.01 µg/mL; Sustained serum levels of 5-AED [7]: ~ 30 ng/mL

**Q.** Which EC50 (PPAR-δ; reference compound) does the source give for `CCCc1c(OCCCOc2ccc(OCC(=O)O)cc2)ccc(C(C)=O)c1O` [L165,041, reference compound] here?
**A.** 0.0011 µM
